The target in one assay is human Gal-1 (hGal-1) (Homo sapiens (Human), UniProt P09382). The assay can be described thus: competitive binding assay: biotinylated hGal-1 binding to microplate-adsorbed asialofetuin (ASF). The note with it: Table 15; read-out: IC50 (Galectin-1 inhibition). An outline of the steps: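 Biotinylated human Gal-1 (300-1000 ng/mL) competes with serially diluted compound for binding to ASF-coated plates, 3 h at 4° C. Bound protein detected with streptavidin-peroxidase and ABTS substrate (spectrophotometric). IC50 given as mean of several measurements.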

A further assay has as its target human Gal-3 (hGal-3) (Homo sapiens (Human), UniProt P17931). Put plainly: competitive binding assay: biotinylated hGal-3 binding to microplate-adsorbed asialofetuin (ASF). An outline of the steps: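 Peroxidase activity developed with ABTS measures the biotinylated hGal-3 remaining on the asialofetuin-coated surface after competition with test compounds. Incubation ran 3 h at 4 °C, followed by 1 h with streptavidin-peroxidase at 80 ng/mL.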

[1] abbreviates: Table 5, read-out: IC50 (Gal-3 inhibition).
Where [2] appears, read: Gal-3 inhibition, binding of biotinylated hGal-3 to ASF, mean values, read-out: IC50.
The mark [3] stands for this setting: Table 11, read-out: IC50 (Gal-3 inhibition).
Setting [4] is: Table 14, read-out: IC50 (Gal-3 inhibition).

Like-named read-outs stand apart in the source and are kept apart here.

human Gal-3 (hGal-3), sequence (P17931 whole entry): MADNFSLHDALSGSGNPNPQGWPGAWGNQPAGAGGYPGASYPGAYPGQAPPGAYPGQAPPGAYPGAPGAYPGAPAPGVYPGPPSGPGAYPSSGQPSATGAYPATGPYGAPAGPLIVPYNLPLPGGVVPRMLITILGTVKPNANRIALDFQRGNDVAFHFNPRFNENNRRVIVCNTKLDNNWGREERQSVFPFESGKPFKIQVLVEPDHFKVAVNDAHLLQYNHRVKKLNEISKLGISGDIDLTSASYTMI
human Gal-1 (hGal-1), sequence (P09382 whole entry): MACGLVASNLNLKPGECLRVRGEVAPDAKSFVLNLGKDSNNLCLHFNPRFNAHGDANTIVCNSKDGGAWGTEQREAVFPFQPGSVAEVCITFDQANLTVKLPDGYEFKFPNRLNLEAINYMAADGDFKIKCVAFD

As a reminder, the IC50 is the concentration needed to halve the response being measured. As to “(2S,3R,4S,5R,6R)-2-(((R)-(2,3-Dichlorophenyl)(4,4-difluoro-1-hydroxycyclohexyl)methyl)thio)-6-(hydroxymethyl)-4-(4-(3,4,5-trifluorophenyl)-1H-1,2,3-triazol-1-yl)tetrahydro-2H-pyran-3,5-diol [Example 2.44.113R.]”, the half-inhibitory concentration (IC50) stood at 1730 nM on human Gal-1 (hGal-1) and 800 nM at human Gal-3 (hGal-3) (setting [1]).

In the case of `CCO[C@@H]1[C@@H](n2cc(-c3cc(F)c(F)c(F)c3)nn2)[C@@H](O)[C@@H](CO)O[C@H]1SC(c1ncccc1C)C1(O)CCC(F)(F)CC1` (stereo partly drawn) [Example 2.44.126.II., (2R,3R,4S,5R,6S)-6-(((4,4-Difluoro-1-hydroxycyclohexyl)(3-methylpyridin-2-yl)methyl)thio)-5-ethoxy-2-(hydroxymethyl)-4-(4-(3,4,5-trifluorophenyl)-1H-1,2,3-triazol-1-yl)tetrahydro-2H-pyran-3-ol], the IC50 stood at 1320 nM at human Gal-1 (hGal-1) and 160 nM at human Gal-3 (hGal-3) (setting [2]).

Regarding `CO[C@@H]1[C@@H](n2cc(-c3cc(F)c(F)c(F)c3)nn2)[C@@H](O)[C@@H](CO)O[C@H]1S[C@H](c1nc(C)ccc1Cl)C1(O)CCC(F)(F)CC1` [Example 2.44.148R.I., (2R,3R,4S,5R,6S)-6-(((R)-(3-Chloro-6-methylpyridin-2-yl)(4,4-difluoro-1-hydroxycyclohexyl)methyl)thio)-2-(hydroxymethyl)-5-methoxy-4-(4-(3,4,5-trifluorophenyl)-1H-1,2,3-triazol-1-yl)tetrahydro-2H-pyran-3-ol], the half-maximal inhibitory concentration (IC50) on human Gal-1 (hGal-1) amounted to 3040 nM; on human Gal-3 (hGal-3) (setting [3]), 240 nM.

As for `CC(C)Cc1ccccc1[C@@H](S[C@@H]1O[C@H](CO)[C@H](O)[C@H](n2cc(-c3cc(F)c(F)c(F)c3)nn2)[C@H]1O)C(C)(C)O` [Example 2.31.107R., (2S,3R,4S,5R,6R)-2-(((R)-2-hydroxy-1-(2-isobutylphenyl)-2-methylpropyl)thio)-6-(hydroxymethyl)-4-(4-(3,4,5-trifluorophenyl)-1H-1,2,3-triazol-1-yl)tetrahydro-2H-pyran-3,5-diol], the IC50 came out at 300 nM on human Gal-1 (hGal-1) and 200 nM at human Gal-3 (hGal-3) (setting [2]).

Turning to `OC[C@H]1O[C@@H](S[C@H](c2ccccc2C(F)(F)F)C2(O)CCOCC2)[C@H](O)[C@@H](n2cc(-c3cc(F)c(F)c(F)c3)nn2)[C@H]1O` [Example 2.41.112R., (2R,3R,4S,5R,6S)-2-(Hydroxymethyl)-6-(((R)-(4-hydroxytetrahydro-2H-pyran-4-yl)(2-(trifluoromethyl)phenyl)methyl)thio)-4-(4-(3,4,5-trifluorophenyl)-1H-1,2,3-triazol-1-yl)tetrahydro-2H-pyran-3,5-diol], the concentration for half-maximal inhibition (IC50) on human Gal-1 (hGal-1) is 900 nM; at human Gal-3 (hGal-3) (setting [1]), 80 nM.

In the case of `CC(C)(O)C(S[C@@H]1O[C@H](CO)[C@H](O)[C@H](n2cc(-c3cc(F)c(F)c(F)c3)nn2)[C@H]1O)c1ccccc1CCO` (stereo partly drawn) [Example 2.31.108., (2S,3R,4S,5R,6R)-2-((2-Hydroxy-1-(2-(2-hydroxyethyl)phenyl)-2-methylpropyl)thio)-6-(hydroxymethyl)-4-(4-(3,4,5-trifluorophenyl)-1H-1,2,3-triazol-1-yl)tetrahydro-2H-pyran-3,5-diol], the figures for the half-inhibitory concentration (IC50) at human Gal-1 (hGal-1) and on human Gal-3 (hGal-3) (setting [2]) were 21200 nM and 380 nM, respectively.

On to `CCCc1onc(C(S[C@@H]2O[C@H](CO)[C@H](O)[C@H](n3cc(-c4cc(F)c(F)c(F)c4)nn3)[C@H]2OC)C2(O)CCC(F)(F)CC2)c1CC` (stereo partly drawn) [Example 2.44.146.I., (2R,3R,4S,5R,6S)-6-(((4,4-Difluoro-1-hydroxycyclohexyl)(4-ethyl-5-propylisoxazol-3-yl)methyl)thio)-2-(hydroxymethyl)-5-methoxy-4-(4-(3,4,5-trifluorophenyl)-1H-1,2,3-triazol-1-yl)tetrahydro-2H-pyran-3-ol], for which the IC50 on human Gal-1 (hGal-1) turned out to be 170 nM; on human Gal-3 (hGal-3) (setting [3]), 120 nM.

As for `CO[C@@H]1[C@@H](n2cc(-c3ccc(C)c(F)c3F)nn2)[C@@H](O)[C@@H](CO)O[C@H]1SC(c1ncccc1C)C1(O)CCC(F)(F)CC1` (stereo partly drawn) [Example 23.44.126.I., (2R,3R,4S,5R,6S)-6-(((4,4-Difluoro-1-hydroxycyclohexyl)(3-methylpyridin-2-yl)methyl)thio)-4-(4-(2,3-difluoro-4-methylphenyl)-1H-1,2,3-triazol-1-yl)-2-(hydroxymethyl)-5-methoxytetrahydro-2H-pyran-3-ol], the IC50 at human Gal-1 (hGal-1) was 550 nM; at human Gal-3 (hGal-3) (setting [4]), 50 nM.

On to `CO[C@@H]1[C@@H](n2cc(-c3ccc(F)c(F)c3)nn2)[C@@H](O)[C@@H](CO)O[C@H]1S[C@H](c1ncccc1C)C1(O)CCC(F)(F)CC1` [Example 16.44.126R.I., (2R,3R,4S,5R,6S)-6-(((R)-(4,4-Difluoro-1-hydroxycyclohexyl)(3-methylpyridin-2-yl)methyl)thio)-4-(4-(3,4-difluorophenyl)-1H-1,2,3-triazol-1-yl)-2-(hydroxymethyl)-5-methoxytetrahydro-2H-pyran-3-ol], for which the IC50 came to 570 nM at human Gal-1 (hGal-1) and 80 nM at human Gal-3 (hGal-3) (setting [4]).

Regarding `OC[C@H]1O[C@@H](S[C@@H](c2ccccc2C(F)(F)F)C2(O)CCOCC2)[C@H](O)[C@@H](n2cc(-c3cc(F)c(F)c(F)c3)nn2)[C@H]1O` [Example 2.41.112S., (2R,3R,4S,5R,6S)-2-(Hydroxymethyl)-6-(((S)-(4-hydroxytetrahydro-2H-pyran-4-yl)(2-(trifluoromethyl)phenyl)methyl)thio)-4-(4-(3,4,5-trifluorophenyl)-1H-1,2,3-triazol-1-yl)tetrahydro-2H-pyran-3,5-diol], the IC50 on human Gal-1 (hGal-1) is 59400 nM; on human Gal-3 (hGal-3) (setting [1]), 6000 nM.

In the case of `CO[C@@H]1[C@@H](n2cc(-c3cc(F)c(F)c(F)c3)nn2)[C@@H](O)[C@@H](CO)O[C@H]1SC(c1ccccc1C(F)(F)F)C1(O)CCN(S(=O)(=O)C2CC2)CC1` (stereo partly drawn) [Example 2.51.112.I., 1-(Cyclopropylsulfonyl)-4-((((2S,3R,4S,5R,6R)-5-hydroxy-6-(hydroxymethyl)-3-methoxy-4-(4-(3,4,5-trifluorophenyl)-1H-1,2,3-triazol-1-yl)tetrahydro-2H-pyran-2-yl)thio)(2-(trifluoromethyl)phenyl)methyl)piperidin-4-ol], the values for the IC50 on human Gal-1 (hGal-1) and on human Gal-3 (hGal-3) (setting [2]) were 350 nM and 80 nM, respectively.

As to `CC(C)(O)[C@@H](S[C@@H]1O[C@H](CO)[C@H](O)[C@H](n2cc(-c3cc(F)c(F)c(F)c3)nn2)[C@H]1O)c1ccccc1CCO` [Example 2.31.108S., (2S,3R,4S,5R,6R)-2-(((S)-2-Hydroxy-1-(2-(2-hydroxyethyl)phenyl)-2-methylpropyl)thio)-6-(hydroxymethyl)-4-(4-(3,4,5-trifluorophenyl)-1H-1,2,3-triazol-1-yl)tetrahydro-2H-pyran-3,5-diol], the values for the IC50 on human Gal-1 (hGal-1) and on human Gal-3 (hGal-3) (setting [2]) were 25800 nM and 8100 nM, respectively.

Turning to `CC(C)c1ccccc1[C@H](S[C@@H]1O[C@H](CO)[C@H](O)[C@H](n2cc(-c3cc(F)c(F)c(F)c3)nn2)[C@H]1O)C(C)(C)O` [Example 2.31.105S., (2S,3R,4S,5R,6R)-2-(((S)-2-Hydroxy-1-(2-isopropylphenyl)-2-methylpropyl)thio)-6-(hydroxymethyl)-4-(4-(3,4,5-trifluorophenyl)-1H-1,2,3-triazol-1-yl)tetrahydro-2H-pyran-3,5-diol], the values for the IC50 at human Gal-1 (hGal-1) and at human Gal-3 (hGal-3) (setting [2]) were 65100 nM and 8300 nM, respectively.

As to `Cc1nccnc1C(S[C@@H]1O[C@H](CO)[C@H](O)[C@H](n2cc(-c3cc(F)c(F)c(F)c3)nn2)[C@H]1O)C1(O)CCC(F)(F)CC1` (stereo partly drawn) [Example 2.44.129., (2S,3R,4S,5R,6R)-2-(((4,4-Difluoro-1-hydroxycyclohexyl)(3-methylpyrazin-2-yl)methyl)thio)-6-(hydroxymethyl)-4-(4-(3,4,5-trifluorophenyl)-1H-1,2,3-triazol-1-yl)tetrahydro-2H-pyran-3,5-diol], the results for the IC50 at human Gal-1 (hGal-1) and on human Gal-3 (hGal-3) (setting [2]) were 350 nM and 90 nM, respectively.

Consider `Cc1conc1[C@H](S[C@@H]1O[C@H](CO)[C@H](O)[C@H](n2cc(-c3cc(F)c(F)c(F)c3)nn2)[C@H]1O)C1(O)CCS(=O)(=O)CC1` [Example 2.66.120S., 4-((S)-(((2S,3R,4S,5R,6R)-3,5-Dihydroxy-6-(hydroxymethyl)-4-(4-(3,4,5-trifluorophenyl)-1H-1,2,3-triazol-1-yl)tetrahydro-2H-pyran-2-yl)thio)(4-methylisoxazol-3-yl)methyl)-4-hydroxytetrahydro-2H-thiopyran 1,1-dioxide], for which the IC50 at human Gal-1 (hGal-1) was determined as 24100 nM; on human Gal-3 (hGal-3) (setting [2]), 4570 nM.

On to “(2S,3R,4S,5R,6R)-2-(((S)-(1-Hydroxycyclohexyl)(4-methylisoxazol-3-yl)methyl)thio)-6-(hydroxymethyl)-4-(4-(3,4,5-trifluorophenyl)-1H-1,2,3-triazol-1-yl)tetrahydro-2H-pyran-3,5-diol [Example 2.39.120S.]”, for which the IC50 on human Gal-1 (hGal-1) amounted to 70000 nM; at human Gal-3 (hGal-3) (setting [1]), 14800 nM.

For `CCn1nnc(C)c1[C@H](S[C@@H]1O[C@H](CO)[C@H](O)[C@H](n2cc(-c3cc(F)c(F)c(F)c3)nn2)[C@H]1OC)C1(O)CCC(F)(F)CC1` [Example 2.44.138S.I., (2R,3R,4S,5R,6S)-6-(((S)-(4,4-Difluoro-1-hydroxycyclohexyl)(1-ethyl-4-methyl-1H-1,2,3-triazol-5-yl)methyl)thio)-2-(hydroxymethyl)-5-methoxy-4-(4-(3,4,5-trifluorophenyl)-1H-1,2,3-triazol-1-yl)tetrahydro-2H-pyran-3-ol], the IC50 on human Gal-1 (hGal-1) was over 100000 nM; on human Gal-3 (hGal-3) (Table 10, 2-OMe-Gal inhibitors, read-out: IC50 (Gal-3 inhibition)), 13200 nM.

These data come from patent publication US12404295B2, “(Hetero)aryl-methyl-thio-beta-D-galactopyranoside derivatives” (Idorsia Pharmaceuticals Ltd, priority 2019, dated 2025).
